Laboratory results taken from publication PMC3173180 (The Journal of Biological Chemistry, 2011).

How the values were obtained:
IbpA-Fic1 = biological target: T1, IbpA-Fic1 (Histophilus somni, UniProt Q06277); assay: SDS-PAGE autoradiography of modified Cdc42; format: biochemical
T1 sequence (Q06277 2994-3358): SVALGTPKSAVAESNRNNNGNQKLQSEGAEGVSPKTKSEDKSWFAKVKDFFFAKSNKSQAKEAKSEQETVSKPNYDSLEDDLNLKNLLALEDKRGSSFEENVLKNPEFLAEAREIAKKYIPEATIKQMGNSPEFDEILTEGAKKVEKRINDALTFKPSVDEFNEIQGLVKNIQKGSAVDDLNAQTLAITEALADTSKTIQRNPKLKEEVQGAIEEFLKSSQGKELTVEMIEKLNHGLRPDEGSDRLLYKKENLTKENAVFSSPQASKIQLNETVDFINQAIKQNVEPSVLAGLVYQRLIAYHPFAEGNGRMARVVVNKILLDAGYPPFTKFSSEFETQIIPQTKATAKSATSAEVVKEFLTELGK

PfhB2-Fic2 = biological target: T2, PfhB2-Fic2 (Pasteurella multocida, UniProt Q9CPH9); assay: SDS-PAGE autoradiography of modified Cdc42; format: biochemical
T2 sequence (Q9CPH9 3309-3609): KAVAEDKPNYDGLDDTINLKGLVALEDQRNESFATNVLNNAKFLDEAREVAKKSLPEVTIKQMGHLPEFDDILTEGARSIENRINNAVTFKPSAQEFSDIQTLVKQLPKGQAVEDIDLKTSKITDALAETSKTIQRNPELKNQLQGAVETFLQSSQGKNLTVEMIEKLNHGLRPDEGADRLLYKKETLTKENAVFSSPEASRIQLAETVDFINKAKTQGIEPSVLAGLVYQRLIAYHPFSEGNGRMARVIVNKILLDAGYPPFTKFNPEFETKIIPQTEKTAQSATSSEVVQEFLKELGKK

PfhB2-Fic1 = biological target: T3, PfhB2-Fic1 (Pasteurella multocida, UniProt Q9CPH9); assay: SDS-PAGE autoradiography of modified Cdc42; format: biochemical
T3 sequence (Q9CPH9 2892-3191): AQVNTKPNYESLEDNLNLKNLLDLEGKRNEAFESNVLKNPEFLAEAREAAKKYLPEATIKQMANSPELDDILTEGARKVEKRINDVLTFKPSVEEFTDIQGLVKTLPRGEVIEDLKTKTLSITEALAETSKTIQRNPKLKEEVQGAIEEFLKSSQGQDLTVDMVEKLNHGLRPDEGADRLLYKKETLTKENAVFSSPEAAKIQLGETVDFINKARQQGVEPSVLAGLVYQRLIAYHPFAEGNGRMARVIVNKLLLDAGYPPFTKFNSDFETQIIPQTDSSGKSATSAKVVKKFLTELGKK

HYPE-Fic = biological target: T4, HYPE-Fic (Homo sapiens, UniProt Q9BVA6); assay: SDS-PAGE autoradiography of modified Cdc42; format: biochemical
T4 sequence (Q9BVA6 181-458): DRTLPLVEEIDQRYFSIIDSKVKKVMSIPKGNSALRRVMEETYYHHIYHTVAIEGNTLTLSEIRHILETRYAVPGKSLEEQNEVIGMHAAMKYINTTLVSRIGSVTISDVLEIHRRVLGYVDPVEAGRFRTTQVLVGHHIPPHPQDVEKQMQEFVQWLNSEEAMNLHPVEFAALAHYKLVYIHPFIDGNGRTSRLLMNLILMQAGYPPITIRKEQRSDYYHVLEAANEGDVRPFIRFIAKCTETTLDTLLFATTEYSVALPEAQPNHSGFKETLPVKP

purified protein = substrate: Nc1ncnc2c1ncn2[C@@H]1O[C@H](COP(=O)(O)OP(=O)(O)OP(=O)(O)O)[C@@H](O)[C@H]1O; assay: purified protein; settings: pH 7.4; 25.0 °C

For `Nc1ncnc2c1ncn2[C@@H]1O[C@H](COP(=O)(O)OP(=O)(O)OP(=O)(O)O)[C@@H](O)[C@H]1O` [ATP], the “SDS-PAGE autoradiography of modified Cdc42” value (“SDS-PAGE autoradiography” below) (IbpA-Fic1) was “ATP was the preferred nucleotide source for all the Fic domains tested”, the “SDS-PAGE autoradiography” value (PfhB2-Fic2) was “ATP was the preferred nucleotide source for all the Fic domains tested” and the “SDS-PAGE autoradiography” value (PfhB2-Fic1) was “ATP was the preferred nucleotide source for all the Fic domains tested”. For the same molecule, the “SDS-PAGE autoradiography” value (HYPE-Fic) was “HYPE-Fic efficiently uses ATP, and CTP to a lesser degree, to modify Cdc42”.

B1: IbpA-Fic2 (untagged) (Histophilus somni 2336) (protein)
chain: DETANKVNYQDLEDNLNLKGLISLEDDRNANFESNVLKNEKFLDEAREISKKSIPEATVKQMSHLPEFDDILTEGAKKVESRINKAITFRPSVEEFSEIQDLVKTLPKTKVIEDLSTKTNEITEALAATSKTIQRTPELKEQLKTAIEDFLQNSQGKPLTVQMIENLNHGLRPDEGEGRLLYKKENLTKENAVFSSPEAAKIQLAETVDFINRAKNEGIEPSVVGALVYQRLIAYHPFAEGNGRMARVIVNKILLDAGYPAFTKFSDEFEPQIIPQTKASTKSATSSEVVVEFLKELAKKGSKEDNEQNLEKTDRT
With B1 the Km (purified protein) was 0.73 ± 0.04 mM and the kcat (purified protein) was 111 ± 2 s⁻¹.
